Earlier results in patent publication US5180744A, “Aralkyl-N-terminal amino hydroxy” (G. D. Searle & Co., priority 1991, dated 1993).
Square brackets hold non-standard residues; d marks the D form. Peptide text beside a SMILES is read from it. * marks the point of attachment. Sta = CC(C)C[C@H](N)[C@@H](O)CC(=O)O; Isovaleryl = CC(C)CC(=O)*

System: hog renin
Settings: after the injection of hog renin into nephrectomized rats

SMILES: CC(C)CC(=O)N[C@H](C(=O)N[C@H](C(=O)N[C@@H](CC(C)C)[C@@H](O)CC(=O)N[C@@H](C)C(=O)N[C@@H](CC(C)C)[C@@H](O)CC(=O)O)C(C)C)C(C)C [pepstatin] (Isovaleryl-VV[Sta]A[Sta]-OH)
- blood pressure in vivo: reduce blood pressure in vivo
